Reference: paper PMC12734540, “Unraveling the Potential Antiviral Activity of Isoxazoline-Carbocyclic Monophosphate Nucleotides Against Echovirus 11” (Microorganisms, 2025)
“And” between values parts separate entries of the source, which are not always exact repeats. Equal values may be shown once.

Columns and labels:
[1] = tested on: Echovirus 11; experiment: Post-infection CPE inhibition assay (crystal violet); format: cell-based, Echovirus 11 lineage 1; conditions: for reduction in E11 infection / E11-induced CPE / EC50: MOI 0.025, 48 h, VERO 76 cells; for EC50: post-infection CPE inhibition
[2] = tested on: Echovirus 11; experiment: E11 RNA quantification in supernatant by qRT-PCR (dose response); format: cell-based, Echovirus 11 lineage 1; conditions: 48 h; for reduction in extracellular viral RNA: supernatant, MOI 0.025, relative to untreated infected controls
Description: (§1) Quantification of E11 genomic RNA was used as a hallmark of RNA virus replication within VERO 76-infected cells. The viral RNA was extracted from both cell culture supernatants and cell-associated fractions and quantified by one-step qRT-PCR using the automated Elite InGenius one-step RNA Enterovirus ELITe MGB® Kit, according to the manufacturer’s protocols. The experiment was performed in triplicate and RNA yield was reported as the mean value of a triplicate assay. To improve the accuracy of extracellular RNA quantification, particularly at 48 h post-infection (p.i.), a secondary analysis was performed using a two-step SYBR Green RT-qPCR. In particular, specific primers targeting the gene encoding the RNA-dependent RNA polymerase (RdRp) of E11 were designed using the Primer3 software (version 4.1.0). […]. Reverse transcription was carried out with a high-capacity cDNA synthesis kit, followed by quantitative PCR using SYBR Green Master Mix on a real-time PCR instrument. Data were analyzed using the ΔΔCt method, with normalization to the synthetic RNA spike-in.
The antiviral activity of nucleotides 4a and 4b against E11 replication was further evaluated by quantifying viral RNA in the supernatant of infected VERO 76 cells treated with increasing concentrations of each compound (6.25–50 μM for 4a; 6.25–100 μM for 4b). Following viral infection at a MOI of 0.025, cells were treated and incubated for 48 h. Viral genome copies were then assessed by qRT-PCR. Treatment with nucleotide 4a led to a dose-dependent reduction in extracellular viral RNA, with a 72% decrease observed at 25 μM and an 89% reduction at 50 μM relative to untreated infected controls.

[3] = tested on: Echovirus 11; experiment: Time-course analysis of E11 RNA (cell monolayer and supernatant) by qRT-PCR; format: cell-based, Echovirus 11 lineage 1; conditions: 25 µM, MOI 0.025; for reduction in intracellular viral RNA levels: cell monolayer
Description: as §1
To evaluate the antiviral activity of compound 4a in VERO 76 cells over time, viral replication was assessed through quantification of viral genome copies via qRT-PCR in both the cell-associated and supernatant fractions, as well as by CPE analysis.
The amount of viral RNA measured in the intracellular and the supernatant fractions was compared against the control group, which consisted of VERO 76 cells that were infected but not subjected to 4a treatment. […] (Figure 5A). […] (Figure 5B).

[4] = tested on: Echovirus 11; experiment: Two-step SYBR Green RT-qPCR of RdRp gene RNA in supernatant; format: cell-based, Echovirus 11 lineage 1; conditions: 25 µM, 48 h p.i., vs untreated controls, p = 0.0003
Description: as §1
To further corroborate and confirm the inhibitory effect of 4a on viral RNA release into the extracellular environment, an additional quantification was performed using a two-step SYBR Green-based RT-qPCR targeting the gene ecoding for the viral RdRp. […]

[5] = tested on: VERO 76 cells; conditions: for cell viability: 25 µM
Description: After 48 h of incubation, 20 µL of MTS reagent were added directly to each well and the plates were incubated according to the manufacturer’s protocol. The conversion of MTS into a soluble formazan product by metabolically active cells was quantified by measuring the absorbance at 490 nm. For data analysis, the optical density (OD) of each well was first corrected by subtracting the background OD (medium + MTS without cells). The percentage of cell viability was then calculated by comparing the corrected OD of treated samples with the mean corrected OD of untreated control cells (0 µM), which was set as 100% viability:Cell viability (%) = (OD_treated − OD_blank)/(mean OD_control − OD_blank) × 100
Two independent experiments were performed, each in triplicate (n = 6 per condition). Dose–response curves were generated and CC50 values were determined by nonlinear regression using GraphPad Prism software v. 8.0 (San Diego, CA, USA).

[6] = tested on: SARS-CoV-2 RdRp; parameters: method as in PMID 37810686; conditions: cited from earlier work
[7] = tested on: Echovirus 11; experiment: Plaque assay of infectious titer; conditions: 25 µM, supernatants collected at 48 h p.i., vs untreated control (CV)
Description: E11 infectious titers were determined by plaque assay. Briefly, 100 µL of culture supernatant from infected cells were serially diluted (10-1–10-4) in DMEM containing 1% FBS. VERO 76 cells were seeded in 24-well plates 24 h before infection to obtain 90% confluency. Cells were inoculated with 50 µl of each dilution and incubated for 1 h at 37 °C with gentle rocking. After adsorption, the inoculum was removed, and cells were overlaid with DMEM containing 1% FBS and carboxymethyl cellulose (CMC). Following 72 h incubation, monolayers were fixed, stained with crystal violet, and plaques were counted. Viral titers were expressed as plaque-forming units per milliliter (PFU/mL) according to:PFU/mL = (number of plaques)/(dilution factor × inoculated volume).

[8] = tested on: Echovirus 11; experiment: Infectivity of viral progeny (CPE on fresh cells); conditions: 25 µM, supernatants collected 10, 24, 48 h p.i.
Description: To directly quantify this effect, a plaque assay was performed on supernatants collected at 48 h p.i.

Structure (SMILES) | reduction in E11 infection / E11-induced CPE ([1]; 25 µM, post-infection) | reduction in E11 infection / E11-induced CPE ([1]; 50 µM, post-infection) | EC50 [1] [µM] | reduction in extracellular viral RNA ([2]; 25 µM) [%] | reduction in extracellular viral RNA ([2]; 50 µM) [%] | reduction in intracellular viral RNA levels ([3]; 10 h p.i.) [%] | reduction in intracellular viral RNA levels ([3]; 24 h p.i.) [%] | drop in viral RNA levels in supernatant ([3]; 24 h p.i.) [%] | drop in viral RNA levels in supernatant ([3]; 48 h p.i.) [%] | RdRp RNA levels in the supernatant [4] | cell viability [5] | anti-SARS-CoV-2 RdRp activity [6] | decrease of infectious viral titer (PFU/mL) [7] [fold] | CPE in fresh VERO 76 cells exposed to supernatants of treated cultures [8] | effect on viral RNA levels in supernatant ([2]; 6.25–100 µM, MOI 0.025) | CC50 [5] [µM] | protection from E11-induced CPE ([1]; 6.25 to 25 µM, post-infection, MOI 0.025, VERO 76 cells)
O=P(O)(O)OC1CC(n2cnc3c(Cl)ncnc32)C2C(c3c4ccccc4c(Br)c4ccccc34)=NOC12 (stereo not shown) [4a] | 90% and 83.9% | 75% and 79.8% | 8.15 ± 1.4 | 72 | 89 | 43 | 65 | 31 | 91 | significantly reduced | > 80% | moderate anti-SARS-CoV-2 RdRp activity | > 10 | markedly reduced CPE | – | – | –
O=P(O)(O)OC1CC(n2cnc3c(Cl)ncnc32)C2ON=C(c3c4ccccc4c(Br)c4ccccc34)C12 (stereo not shown) [4b] | 58% | 38% | 40.5 ± 1.8 | – | – | – | – | – | – | – | ~ 77% | moderate anti-SARS-CoV-2 RdRp activity | – | – | did not markedly affect viral RNA levels | 93.7 | –
CCC(CC)COC(=O)[C@H](C)N[P@](=O)(OC[C@H]1O[C@@](C#N)(c2ccc3c(N)ncnn23)[C@H](O)[C@@H]1O)Oc1ccccc1 [RDV, Remdesivir, reference compound] | – | – | – | – | – | – | – | – | – | – | – | – | – | – | – | – | robust and dose-dependent protection from E11-induced CPE
